Experimental findings from ChEMBL document CHEMBL1127637, “Antiplatelet agents based on cyclooxygenase inhibition without ulcerogenesis. Evaluation and synthesis of 4,5-bis(4-methoxyphenyl)-2-substituted-thiazoles” (J Med Chem, 1994) are described below.

Where only a bound is given, the exact number is not on record here.

Broadly, the IC50 is the concentration at which inhibition is half-maximal. The Inhibition is the percentage by which the read-out fell short of the control. A high value points to strong suppression. The term inhibition in vivo denotes the share of the control response that was lost under treatment. Read a high inhibition in vivo as strong suppression. One may read the ED50 as the dose at which the effect has come halfway, by size or by number of responders. Low readings indicate an effect at a small dose, high ones a need for a large dose.

Assay type in all cases: functional
Assay [1] is filed under the species Oryctolagus cuniculus. As to the kind of experiment: In vitro antiplatelet activity against arachidonic acid induced malondialdehyde production.
For assay [2], the species on record is Oryctolagus cuniculus. As to the kind of experiment: Inhibitory activity on the MDA production at 1 uM.
The species entered for assay [3] is Rattus norvegicus. Put plainly: In vitro vasodilatory activity in isolated rat aorta. The conditions noted are these: read-out: ED50 (the source's name).
Assay [4] deals with Cavia porcellus. As to the kind of experiment: Inhibitory effect on platelet aggregation induced by Arachidonic acid (AA) in guinea pigs ex vivo at a dose of 1 mg/kg after 6 hr of oral administration.
Assay [5] has as its system Cavia porcellus. As to the kind of experiment: Inhibitory effect on platelet aggregation induced by Arachidonic acid (AA) in guinea pigs ex vivo at a dose of 3.2 mg/Kg after 6 hr of oral administration.
In assay [6] the test system is Cavia porcellus. As to the kind of experiment: Inhibitory effect on platelet aggregation induced by Collagen in guinea pigs ex vivo at a dose of 1 mg/Kg after 6 hr of oral administration.
In assay [7] the test system is Cavia porcellus. Put plainly: Inhibitory effect on platelet aggregation induced by Collagen in guinea pigs ex vivo at a dose of 3.2 mg/Kg after 6 hr of oral administration.
The test system of assay [8] is Rattus norvegicus. As to the kind of experiment: Compound was evaluated for collagen-induced platelet aggregation ex vivo in rat at the dose of 100 mg/Kg.
The subject of assay [9] is Rattus norvegicus. As to the kind of experiment: Induction of acute stomach lesion at a dose of 100 mg/Kg.

`COc1ccc(-c2nc(/N=C(\N)N3CCOCC3)sc2-c2ccc(OC)cc2)cc1` displayed an IC50 in the assay listed under Oryctolagus cuniculus [1] of less than 1000 nM. In the assay filed under Oryctolagus cuniculus [2], the Inhibition is on record as 79.9%. Also, the EC50 in the assay listed under Rattus norvegicus [3] was 66000 nM.
Regarding `COc1ccc(-c2nc(C(=O)N3CCN(C)CC3)sc2-c2ccc(OC)cc2)cc1` [FR-122047], the inhibition in vivo at 1 mg/kg with Cavia porcellus [4] came to 100%; with Cavia porcellus [6] it was 83.1%. For the same compound, the inhibition in vivo at 3.2 mg/kg in the assay with Cavia porcellus [5] and in the assay with Cavia porcellus [7] was 100% in each case. 88 nM corresponded to half-maximal inhibition in the assay listed under Oryctolagus cuniculus [1] (IC50). This compound returned an ED50 in the assay with Rattus norvegicus [8] of 1.4 mg/kg. The compound further gave a Ulcer index with Rattus norvegicus [9] of 0.
